The source made the active and inactive calls. The rule behind the calls is not given here.
What was measured:
A549 [1] = assay: Antiproliferative activity against human A549 cells after 3 days; format: functional, cell-based; details: A549, 72 h
A549 [2] = assay: Antiproliferative activity against human A549 cells at 1 mM after 3 days; format: functional; details: A549, 72 h
[3] = molecular target: Histone deacetylase (Homo sapiens) (UniProt Q13547+O15379+Q9UBN7+Q92769+Q9UQL6+Q8WUI4+Q9BY41+Q96DB2+P56524+Q9UKV0+Q969S8); assay: Inhibition of human HDAC in A549 cells assessed as increase in histone-H4 acetylation at 150 uM after 24 hrs by Western blot; format: cell-based
Histone deacetylase = assay: Inhibition of human HDAC in HeLa nuclear extracts
[4] = Dissociation constant, pKa of the compound; format: physicochemical

Structure (SMILES)	IC50 (A549 [1]) [µM]	Activity [3]	IC50 (Histone deacetylase) [µM]	inhibition at 1000 µM (A549 [2]) [%]	pKa [4]
CCCC(CCC)C(=O)O [VALPROIC ACID]	> 1000	Active		24	
CCCC(CCC)C(=O)NCCSS(C)(=O)=O			17.5		
Oc1ccc(-c2cc(=S)ss2)cc1	66		0.45		7.86

Continued, in another order:

IC50 (A549 [1]) [µM]	Activity [3]	IC50 (Histone deacetylase) [µM]	Structure (SMILES)	inhibition at 1000 µM (A549 [2]) [%]	pKa [4]
161		102	CS(=O)(=O)SCCO		
154		198	Br.CS(=O)(=O)SCCN		
154		9.6	CCCC(CCC)C(=O)OCCSS(C)(=O)=O		
89		56.4	CCCC(CCC)C(=O)Oc1ccc(-c2cc(=S)ss2)cc1		
